# Test results from ChEMBL document CHEMBL5143529, “Design, synthesis, and biological evaluation of novel (4-(1,2,4-oxadiazol-5-yl)phenyl)-2-aminoacetamide derivatives as multifunctional agents for the treatment of Alzheimer's disease” (Eur J Med Chem, 2022).
# Experiments:
# PC-12 [1] = experiment: Neuroprotective activity against H202-induced cell death in rat PC-12 cells assessed as cell viability at 5 uM pretreated for 3 hrs followed by H2O2 stimulation and measured after 24 hrs by MTT assay relative to control; type: functional; settings: time 27 hrs, read-out: Activity
# [2] = Cytotoxicity against rat PC-12 cells assessed as cell viability at 50 uM incubated for 24 hrs by MTT assay relative to control; type: toxicity, cell-based; settings: read-out: Activity
# PC-12 [3] = experiment: Neuroprotective activity against H202-induced cell death in rat PC-12 cells assessed as cell viability at 20 uM pretreated for 3 hrs followed by H2O2 stimulation and measured after 24 hrs by MTT assay relative to control; type: functional; settings: time 27 hrs, read-out: Activity
# Acetylcholinesterase = Acetylcholinesterase (Electrophorus electricus, UniProt O42275); experiment: Inhibition of electric eel AChE using acetylthiocholine iodide as substrate preincubated for 20 mins followed by substrate addition and measured after 5 mins by DTNB-reagent based Ellman's method
# Chain of Acetylcholinesterase (O42275 whole entry): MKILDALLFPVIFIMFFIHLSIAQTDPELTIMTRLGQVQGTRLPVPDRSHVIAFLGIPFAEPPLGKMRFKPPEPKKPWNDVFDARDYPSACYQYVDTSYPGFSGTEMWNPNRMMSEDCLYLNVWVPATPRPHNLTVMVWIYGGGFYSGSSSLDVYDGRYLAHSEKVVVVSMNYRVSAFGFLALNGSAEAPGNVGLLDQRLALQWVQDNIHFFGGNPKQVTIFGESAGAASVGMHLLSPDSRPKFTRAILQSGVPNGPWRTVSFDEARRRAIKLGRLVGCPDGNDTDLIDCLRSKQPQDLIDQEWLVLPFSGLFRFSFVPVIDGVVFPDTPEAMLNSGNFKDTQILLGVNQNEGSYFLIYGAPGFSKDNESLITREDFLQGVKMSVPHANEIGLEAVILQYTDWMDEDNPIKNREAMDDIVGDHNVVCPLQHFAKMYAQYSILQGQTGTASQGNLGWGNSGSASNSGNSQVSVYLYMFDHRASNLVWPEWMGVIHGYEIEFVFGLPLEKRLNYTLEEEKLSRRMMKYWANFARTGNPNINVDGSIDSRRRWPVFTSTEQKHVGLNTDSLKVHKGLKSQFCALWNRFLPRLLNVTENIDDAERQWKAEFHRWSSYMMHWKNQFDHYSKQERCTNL
# [4] = Cytotoxicity against rat PC-12 cells assessed as cell viability at 25 uM incubated for 24 hrs by MTT assay relative to control; type: toxicity, cell-based; settings: read-out: Activity
# Cholinesterase = Cholinesterase (Equus caballus, UniProt P81908)
# Chain of Cholinesterase (P81908 whole entry): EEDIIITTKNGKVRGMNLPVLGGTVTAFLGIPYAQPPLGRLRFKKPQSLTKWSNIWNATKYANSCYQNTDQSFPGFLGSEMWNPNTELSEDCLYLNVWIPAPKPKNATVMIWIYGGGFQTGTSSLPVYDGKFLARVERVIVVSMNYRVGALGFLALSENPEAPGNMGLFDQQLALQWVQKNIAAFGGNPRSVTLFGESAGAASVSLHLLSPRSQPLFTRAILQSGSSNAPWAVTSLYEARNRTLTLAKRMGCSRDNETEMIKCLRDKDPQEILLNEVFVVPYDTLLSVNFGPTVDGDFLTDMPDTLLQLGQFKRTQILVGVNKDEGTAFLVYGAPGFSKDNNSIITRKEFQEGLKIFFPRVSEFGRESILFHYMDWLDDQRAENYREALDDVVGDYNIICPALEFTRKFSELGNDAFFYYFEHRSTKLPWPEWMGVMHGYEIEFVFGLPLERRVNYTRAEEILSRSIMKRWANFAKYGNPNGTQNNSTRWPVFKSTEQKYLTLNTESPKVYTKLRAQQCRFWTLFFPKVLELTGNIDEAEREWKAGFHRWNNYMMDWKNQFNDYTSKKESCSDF
# Description: Inhibition of equine serum BuChE using butyrylthiocholine iodide as substrate preincubated for 20 mins followed by substrate addition and measured after 5 mins by DTNB-reagent based Ellman's method
# cells = settings: Mus musculus, BV-2
# Description: Inhibition of NO production in LPS-induced mouse BV-2 cells pretreated for 1 hr followed by LPS stimulation and measured after 24 hrs by ELISA
# [5] = Potency index, ratio of resveratrol IC50 to test compound IC50 for inhibition of NO production in LPS-induced mouse BV-2 cells pretreated for 1 hr followed by LPS stimulation and measured after 24 hrs by ELISA; type: functional; settings: time 25 hrs
Structure (SMILES),viability at 5 µM (PC-12 [1]) [%],"viability at 24 h, 50 µM [2] [%]",viability at 20 µM (PC-12 [3]) [%],IC50 (Acetylcholinesterase) [µM],"viability at 24 h, 25 µM [4] [%]",IC50 (Cholinesterase) [µM],IC50 (cells) [µM],Ratio IC50 [5]
O=C(CNc1ccc(Br)cc1)Nc1ccc(-c2nc(-c3ccnc(Nc4ccc(OC(F)(F)F)cc4)c3)no2)cc1,37.8,99.1,46.5,> 50,99.7,10.5,4.22,–
O=C(CNCc1ccc(C(F)(F)F)cc1)Nc1ccc(-c2nc(-c3ccnc(Nc4ccc(OC(F)(F)F)cc4)c3)no2)cc1,25.7,99.4,33,> 50,99.7,30.9,8.48,–
COc1ccc(NCC(=O)Nc2ccc(-c3nc(-c4ccnc(Nc5ccc(OC(F)(F)F)cc5)c4)no3)cc2)cc1,33.2,98.7,44.6,> 50,99,> 50,6.95,–
O=C(CNCc1ccc(F)cc1)Nc1ccc(-c2nc(-c3ccnc(Nc4ccc(OC(F)(F)F)cc4)c3)no2)cc1,41.9,99.8,48.6,> 50,100,37.8,9.23,–
Cc1cccc(NCC(=O)Nc2ccc(-c3nc(-c4ccnc(Nc5ccc(OC(F)(F)F)cc5)c4)no3)cc2)c1,50.1,99.2,50.7,> 50,99.6,20.2,7.29,–
CCCNCC(=O)Nc1ccc(-c2nc(-c3ccnc(Nc4ccc(OC(F)(F)F)cc4)c3)no2)cc1,41.4,99.5,52.8,> 50,99.6,23.3,7.82,–
O=C(CNc1ccc(C(F)(F)F)cc1)Nc1ccc(-c2nc(-c3ccnc(Nc4ccc(OC(F)(F)F)cc4)c3)no2)cc1,55.8,99.7,61.7,46.5,99.9,1.88,1.61,–
CC(C)CNCC(=O)Nc1ccc(-c2nc(-c3ccnc(Nc4ccc(OC(F)(F)F)cc4)c3)no2)cc1,34.1,99.6,43.9,> 50,99.9,29.4,3.88,–
O=C(CNc1ccc(F)c(F)c1)Nc1ccc(-c2nc(-c3ccnc(Nc4ccc(OC(F)(F)F)cc4)c3)no2)cc1,35.7,97.3,45.8,> 50,99.4,9.88,4.8,–
O=C(CNc1cccc(Cl)c1)Nc1ccc(-c2nc(-c3ccnc(Nc4ccc(OC(F)(F)F)cc4)c3)no2)cc1,34.1,98.7,37.7,> 50,99.4,12.8,3.66,–
O=C(CNCc1ccccc1)Nc1ccc(-c2nc(-c3ccnc(Nc4ccc(OC(F)(F)F)cc4)c3)no2)cc1,43.2,99.5,53.5,> 50,99.7,39.2,7.48,–
COc1cccc(NCC(=O)Nc2ccc(-c3nc(-c4ccnc(Nc5ccc(OC(F)(F)F)cc5)c4)no3)cc2)c1,30.7,98.3,33.7,> 50,99.5,33.5,13.2,–
O=C(CNCc1cccc(Cl)c1)Nc1ccc(-c2nc(-c3ccnc(Nc4ccc(OC(F)(F)F)cc4)c3)no2)cc1,33.4,99.7,43.9,> 50,99.8,> 50,14.6,–
CCCCNCC(=O)Nc1ccc(-c2nc(-c3ccnc(Nc4ccc(OC(F)(F)F)cc4)c3)no2)cc1,40,98.9,44.4,> 50,99.9,15.7,8.24,–
O=c1c(O)c(-c2ccc(O)c(O)c2)oc2cc(O)cc(O)c12 [QUERCETIN],48.2,99.5,59.4,–,99.6,–,–,–
O=C(CNC1CC1)Nc1ccc(-c2nc(-c3ccnc(Nc4ccc(OC(F)(F)F)cc4)c3)no2)cc1,33.5,99.7,46.7,48.9,100,24.3,5.67,–
O=C(CNC1CCCC1)Nc1ccc(-c2nc(-c3ccnc(Nc4ccc(OC(F)(F)F)cc4)c3)no2)cc1,44.1,98.2,57,> 50,99.5,16.6,2.66,–
O=C(CNc1ccccc1)Nc1ccc(-c2nc(-c3ccnc(Nc4ccc(OC(F)(F)F)cc4)c3)no2)cc1,46.9,99.4,58.4,> 50,99.8,14.1,0.42,26
O=C(CNc1cccc(F)c1)Nc1ccc(-c2nc(-c3ccnc(Nc4ccc(OC(F)(F)F)cc4)c3)no2)cc1,39.4,99.3,58.5,> 50,99.6,5.51,3.16,–
Cc1ccccc1NCC(=O)Nc1ccc(-c2nc(-c3ccnc(Nc4ccc(OC(F)(F)F)cc4)c3)no2)cc1,45.2,99.3,55.2,> 50,99.6,25.8,8.74,–
Oc1ccc(/C=C/c2cc(O)cc(O)c2)cc1 [RESVERATROL],–,–,–,–,–,–,11,–
Cc1ccc(NCC(=O)Nc2ccc(-c3nc(-c4ccnc(Nc5ccc(OC(F)(F)F)cc5)c4)no3)cc2)cc1,37.9,99.8,49.1,> 50,100,19.3,5.97,–
O=C(CNc1ccc(Cl)cc1)Nc1ccc(-c2nc(-c3ccnc(Nc4ccc(OC(F)(F)F)cc4)c3)no2)cc1,43.6,98.2,61.6,45.2,98.8,7.39,2.58,–
O=C(CNCc1cccc(F)c1)Nc1ccc(-c2nc(-c3ccnc(Nc4ccc(OC(F)(F)F)cc4)c3)no2)cc1,28.1,96.7,36.2,> 50,98.4,45.3,13,–
